Assay results: article PMC6723808, “New Benzofuranoids and Phenylpropanoids from the Mangrove Endophytic Fungus, Aspergillus sp. ZJ-68” (Marine Drugs, 2019)
Converted amounts (≈) assume the structure as drawn.

Assays:
Assay in all cases: Antibacterial assay, MIC by continuous dilution method in 96-well plates
[1] = system: S. aureus (ATCC 25923); assay type: cell-based, Staphylococcus aureus; settings: for MIC: Staphylococcus aureus, ATCC25923, S. aureus ATCC 25923, read-out: MIC (μg/mL) S. aureus
Method: (§1) Two Gram-positive bacteria B. subtilis (ATCC 6633) and S. aureus (ATCC 25923), and two Gram-negative bacteria E. coli (ATCC 25922) and P. aeruginosa (ATCC 27853) were used. The antibacterial assay and the determination of the MIC were assessed according to continuous dilution method in 96-well plates which has been described in our published paper. The tested substances were dissolved in DMSO and ciprofloxacin was the positive control.

[2] = system: E. coli (ATCC 25922); assay type: cell-based, Escherichia coli; settings: for MIC: Escherichia coli, ATCC25922, E. coli ATCC 25922, read-out: MIC (μg/mL) E. coli
Method: as §1

[3] = system: B. subtilis (ATCC 6633); assay type: cell-based, Bacillus subtilis; settings: for MIC: Bacillus subtilis, ATCC6633, B. subtilis ATCC 6633, read-out: MIC (μg/mL) B. subtilis
Method: as §1

[4] = system: P. aeruginosa (ATCC 27853); assay type: cell-based; settings: Pseudomonas aeruginosa, ATCC27853, read-out: MIC (μg/mL) P. aeruginosa
Method: as §1

| MIC (μg/mL) S. aureus ([1]; S. aureus ATCC 25923) | MIC [1] | MIC (μg/mL) E. coli ([2]; E. coli ATCC 25922) | MIC [2] | MIC (μg/mL) B. subtilis ([3]; B. subtilis ATCC 6633) | MIC [3] | MIC [4] | SMILES |
| --- | --- | --- | --- | --- | --- | --- | --- |
| 4.15 ± 1.12 µg/mL (≈ 25 µM) | 4.15 to 12.5 µg/mL (≈ 25 to 75.2 µM) | 8.3 ± 1.0 µg/mL (≈ 49.9 µM) | 4.15 to 12.5 µg/mL (≈ 25 to 75.2 µM) | 8.3 ± 1.1 µg/mL (≈ 49.9 µM) | 4.15 to 12.5 µg/mL (≈ 25 to 75.2 µM) | > 100 µg/mL | CCCc1cccc(O)c1CO [Compound 8, 2-(hydroxymethyl)-3-propylphenol] |
| – | 1.25 ± 1.1 µg/mL (≈ 3.77 µM) | – | 1.25 ± 1.12 µg/mL (≈ 3.77 µM) | – | 2.5 ± 1.1 µg/mL (≈ 7.54 µM) | 2.5 ± 1.2 µg/mL (≈ 7.54 µM) | O=C(O)c1cn(C2CC2)c2cc(N3CCNCC3)c(F)cc2c1=O [ciprofloxacin, reference compound] |
| – | > 100 µg/mL | – | > 100 µg/mL | – | > 100 µg/mL | > 100 µg/mL | CC(C)=C1Oc2c(ccc3c2[C@@H](O)O[C@H](C)C3)C1=O [Compound 12, (+)-pseudodeflectusin] |
| – | > 100 µg/mL | – | > 100 µg/mL | – | > 100 µg/mL | > 100 µg/mL | CCCc1ccc(O)c(O)c1CO [Compound 6, Asperpanoid A] |
| – | > 100 µg/mL | – | > 100 µg/mL | – | > 100 µg/mL | > 100 µg/mL | CC(C)=C1Oc2c(ccc(CC(C)O)c2CO)C1=O (stereo not drawn) [Compound 14, ustusorane A] |
| – | – | – | – | – | – | > 100 µg/mL | CCCc1ccc2c(c1CO)O[C@@H](C(C)(C)O)C2 [Compound 11, (−)-brassicadiol] |
